This assay relates to MCH receptors. Description: MCH receptor activity class (method not given).
[1] abbreviates: class by percent of control at 10^-7 M or IC50.
[2] abbreviates: MCH receptor, class by percent of control at 10^-7 M or IC50.
Where [3] appears, read: activity class per percent of control at 10^-7 M or IC50.

With `CN(C)c1nc(N[C@H]2CC[C@@H](NC(=S)Nc3c(F)cc(Br)cc3Br)CC2)nc2c1CCCC2` [compound 1780, N-(2,4-dibromo-6-fluorophenyl)-N′-(cis-4-{[4-(dimethylamino)-5,6,7,8-tetrahydroquinazolin-2-yl]amino}cyclohexyl)thiourea], the class under setting [1] is recorded as 2 (Class 2: The value of percent of control at 10^−7 M was from 40% to 60% or the value of IC′50 was from 50 nM to 200 nM.).

Turning to `COc1cccc(C(=O)N[C@H]2CC[C@@H](Nc3cc(N(C)C)c4ccccc4n3)CC2)c1` [compound 20, N-(cis-4-{[4-(dimethylamino)quinolin-2-yl]amino}cyclohexyl)-3-methoxybenzamide], the class under setting [2] is given as 2 (Class 2: The value of percent of control at 10^−7 M was from 40% to 60% or the value of IC′50 was from 50 nM to 200 nM.). With `CN(C)c1ccnc(N[C@H]2CC[C@@H](NC(=O)Nc3ccc4c(c3)OCO4)CC2)n1` [compound 2238], the class under setting [1] was 3 (Class 3 The value of percent of control at 10^−7 M was more than 60% or the value of IC50 was more than 200 nM.). Turning to `C[C@@H](c1ccccc1)N(C(=O)c1ccccc1C(=O)N[C@H]1CC[C@@H](Nc2nc3c(c(N(C)C)n2)CCCC3)CC1)[C@@H](C)c1ccccc1` [compound 1015], the class under setting [3] was 1 (Class 1: The value of percent of control at 10^−7 M was less than 40% or the value of IC50 was less than 50 nM.). With `CN(C)c1cc(N[C@H]2CC[C@@H](NC(=O)CCCc3cccs3)CC2)nc2ccccc12` [compound 746], the class under setting [1] is reported as 3 (Class 3 The value of percent of control at 10^−7 M was more than 60% or the value of IC50 was more than 200 nM.). Take `CN(C)c1nc(N[C@H]2CC[C@@H](NC(=O)c3cc([N+](=O)[O-])cn3C)CC2)nc2c1CCCC2` [compound 1044]: the class under setting [3] is recorded as 1 (Class 1: The value of percent of control at 10^−7 M was less than 40% or the value of IC50 was less than 50 nM.).

For `CN(C)c1cc(N[C@H]2CC[C@@H](NC(=O)c3cnc4ccccc4n3)CC2)nc2ccccc12` [compound 114, N-(cis-4-{[4-(dimethylamino)quinolin-2-yl]amino}cyclohexyl)quinoxaline-2-carboxamide], the class under setting [2] is 2 (Class 2: The value of percent of control at 10^−7 M was from 40% to 60% or the value of IC′50 was from 50 nM to 200 nM.). For the molecule `COc1ccc(C)cc1NC(=S)N[C@H]1CC[C@@H](Nc2nc3c(c(N(C)C)n2)CCCC3)CC1` [compound 1750], the class under setting [1] was 2 (Class 2: The value of percent of control at 10^−7 M was from 40% to 60% or the value of IC′50 was from 50 nM to 200 nM.). Same read-out and setting: with `COc1cc(CCN[C@H]2CC[C@@H](Nc3cc(N(C)C)c4ccccc4n3)CC2)cc(OC)c1` [compound 1458] the figure was 3 (Class 3 The value of percent of control at 10^−7 M was more than 60% or the value of IC50 was more than 200 nM.).

On to `CN(C)c1ccnc(N[C@H]2CC[C@@H](CNC(=O)OCCOCc3ccccc3)CC2)n1` [compound 1639], for which the class (activity class 1-3: percent of control at 10^-7 M or IC50) was 3 (Class 3 The value of percent of control at 10^−7 M was more than 60% or the value of IC50 was more than 200 nM.). As for `Cc1ccc(C)c(NC(=O)N[C@H]2CC[C@@H](Nc3nc4c(c(N(C)C)n3)CCCC4)CC2)c1` [compound 1850], the class under setting [1] is reported as 3 (Class 3 The value of percent of control at 10^−7 M was more than 60% or the value of IC50 was more than 200 nM.). As to `CN(C)c1ccnc(N[C@H]2CC[C@@H](NC(=O)c3cc([N+](=O)[O-])cn3C)CC2)n1` [compound 907, N-(cis-4-{[4-(dimethylamino)pyrimidin-2-yl]amino}cyclohexyl)-1-methyl-4-nitro-1H-pyrrole-2-carboxamide], the class under setting [1] is given as 1 (Class 1: The value of percent of control at 10^−7 M was less than 40% or the value of IC50 was less than 50 nM.).

With `CC(NC(=S)N[C@H]1CC[C@@H](Nc2nc3c(c(N(C)C)n2)CCCC3)CC1)c1ccccc1` (relative stereo) [compound 2024], the class under setting [2] is 3 (Class 3 The value of percent of control at 10^−7 M was more than 60% or the value of IC50 was more than 200 nM.).

The record behind these values is patent publication US20050197350A1, “Novel quinoline, tetrahydroquinazoline, and pyrimidine derivatives and methods of treatment related to the use thereof” (TAISHO PHARMACEUTICAL CO., LTD., priority 2003, published 2005).
